Our source for the IC50 values is patent US20240199649A1 (Biosplice Therapeutics, Inc., priority 2022, published 2024).

A word on the IC50: it is the concentration that inhibits the measured activity by half.

The target of this test is recombinant DYRK1A kinase (Homo sapiens (Human), UniProt Q13627). Nature of the test: DYRK1A kinase assay (Ser/Thr 18 peptide Z-lyte FRET assay). The test is classed as biochemical. The conditions noted are these: DYRK1A 0.25 μg/mL, ATP 15 μM, Ser/Thr peptide 18 4 μM; one hour at room temperature; 11-point dose-response, duplicate. The protocol: Representative compounds were screened using the assay procedure for DYRK1A kinase activity as described below.
Each compound was dissolved in DMSO as a 10 mM stock and used to prepare compound source plates.
This is a non-radioactive assay using fluorescence resonance energy transfer (FRET) between coumarin and fluorescein to detect kinase activity which is represented as a ratio of coumarin emission/fluorescein emission.
The mixture was allowed to incubate with the representative compounds for one hour at room temperature. All reactions were performed in duplicate. Unphosphorylated (“0% Control”) and phosphorylated (“100% control”) forms of Ser/Thr 18 served as control reactions. Additionally, an 11-point dose-response curve of Staurosporine (1 uM top) was run to serve as a positive compound control.
After incubation, Development Reagent A was diluted in Development Buffer then added to the reaction and allowed to further incubate for one hour at room temperature.
Dose-response curves were generated, and inhibitory concentration (IC50) values were calculated using non-linear regression curve fit in the Dotmatics' Studies Software (Bishops Stortford, UK).
Regarding `CNc1nc(N[C@@H]2CN(C)CC2(F)F)nn2ccc(-c3ccc4nc(C)n(CC(F)F)c4n3)c12` [Compound 364, (R)—N^2-(4,4-Difluoro-1-methylpyrrolidin-3-yl)-5-(3-(2,2-difluoroethyl)-2-methyl-3H-imidazo[4,5-b]pyridin-5-yl)-N^4-methylpyrrolo[2,1-f][1,2,4]triazine-2,4-diamine], the IC50 is 0.6 nM.
As to `CNc1nc(N[C@@H]2CCN(C(C)=O)CC2(F)F)nn2ccc(-c3ccc4nc(C)n(CCF)c4n3)c12` [Compound 1021, (R)-1-(3,3-Difluoro-4-((5-(3-(2-fluoroethyl)-2-methyl-3H-imidazo[4,5-b]pyridin-5-yl)-4-(methylamino)pyrrolo[2,1-f][1,2,4]triazin-2-yl)amino)piperidin-1-yl)ethan-1-one], the IC50 is 1.3 nM.
For the molecule `CN1CC[C@@H](Nc2nc(N)c3c(-c4ccc5ncn(CCF)c5n4)ccn3n2)C(F)(F)C1` [Compound 985, (R)—N^2-(3,3-Difluoro-1-methylpiperidin-4-yl)-5-(3-(2-fluoroethyl)-3H-imidazo[4,5-b]pyridin-5-yl)pyrrolo[2,1-f][1,2,4]triazine-2,4-diamine], the IC50 stood at 1.5 nM.
With `CNc1nc(N[C@H]2CC[C@@H](OCCO)CC2)nn2ccc(-c3ccc4nc(C)n(CC(F)F)c4n3)c12` [Compound 184, 2-((cis-4-((5-(3-(2,2-Difluoroethyl)-2-methyl-3H-imidazo[4,5-b]pyridin-5-yl)-4-(methylamino)pyrrolo[2,1-f][1,2,4]triazin-2-yl)amino)cyclohexyl)oxy)ethan-1-ol], the IC50 was 0.5 nM.
Regarding `CNc1nc(N[C@H]2CCN(C(C)=O)C[C@H]2F)nn2ccc(-c3ccc4ncn(CC(F)(F)F)c4n3)c12` [Compound 1015, 1-((3R,4S)-3-Fluoro-4-((4-(methylamino)-5-(3-(2,2,2-trifluoroethyl)-3H-imidazo[4,5-b]pyridin-5-yl)pyrrolo[2,1-f][1,2,4]triazin-2-yl)amino)piperidin-1-yl)ethan-1-one], the IC50 turned out to be 1.4 nM.
Regarding `CNc1nc(NC2CCN(CC(F)F)CC2)nn2ccc(-c3ccc4nc(C)n(CC(F)F)c4n3)c12` [Compound 201, 5-(3-(2,2-Difluoroethyl)-2-methyl-3H-imidazo[4,5-b]pyridin-5-yl)-N^2-(1-(2,2-difluoroethyl)piperidin-4-yl)-N^4-methylpyrrolo[2,1-f][1,2,4]triazine-2,4-diamine], the 50% inhibitory concentration (IC50) was 0.7 nM.
Next, “N^2-(4,4-Difluorocyclohexyl)-N^4-methyl-5-(3-(2,2,2-trifluoroethyl)-3H-[1,2,3]triazolo[4,5-b]pyridin-5-yl)pyrrolo[2,1-f][1,2,4]triazine-2,4-diamine [Compound 1030]”: 193 nM.
Take `CC(=O)N1C[C@H](F)[C@H](Nc2nc(N)c3c(-c4ccc5nc(C)n(CC(F)F)c5n4)ccn3n2)C1` [Compound 700, 1-((3R,4S)-3-((4-Amino-5-(3-(2,2-difluoroethyl)-2-methyl-3H-imidazo[4,5-b]pyridin-5-yl)pyrrolo[2,1-f][1,2,4]triazin-2-yl)amino)-4-fluoropyrrolidin-1-yl)ethan-1-one]: the IC50 came out at 1 nM.
Regarding `Nc1nc(N[C@@H]2CN(C3COC3)C[C@@H]2F)nn2ccc(-c3ccc4ncn(CC(F)F)c4n3)c12` [Compound 988, 5-(3-(2,2-Difluoroethyl)-3H-imidazo[4,5-b]pyridin-5-yl)-N^2-((3R,4S)-4-fluoro-1-(oxetan-3-yl)pyrrolidin-3-yl)pyrrolo[2,1-f][1,2,4]triazine-2,4-diamine], the half-inhibitory concentration (IC50) is 0.6 nM.
With `Cc1nc2ccc(-c3ccn4nc(N[C@@H]5CCNCC5(F)F)nc(NC5COC5)c34)nc2n1CC(F)F` [Compound 486, (R)-5-(3-(2,2-Difluoroethyl)-2-methyl-3H-imidazo[4,5-b]pyridin-5-yl)-N^2-(3,3-difluoropiperidin-4-yl)-N^4-(oxetan-3-yl)pyrrolo[2,1-f][1,2,4]triazine-2,4-diamine], the half-inhibitory concentration (IC50) came out at 7830 nM.
Take `CNc1nc(NC2CCN(C3COC3)CC2)nn2ccc(-c3cnc4nc(C)n(C(C)C)c4c3)c12` [Compound 114]: the IC50 stood at 744 nM.
Next, `CNc1nc(N[C@@H]2[C@@H]3CN(C(C)=O)C[C@@H]32)nn2ccc(-c3ccc4nc(C)n(CC(F)F)c4n3)c12` [Compound 220, 1-((1R,5S,6r)-6-((5-(3-(2,2-Difluoroethyl)-2-methyl-3H-imidazo[4,5-b]pyridin-5-yl)-4-(methylamino)pyrrolo[2,1-f][1,2,4]triazin-2-yl)amino)-3-azabicyclo[3.1.0]hexan-3-yl)ethan-1-one]: 9.7 nM; `CNc1nc(N[C@H]2CC[C@@H](OC)CC2)nn2ccc(-c3ccc4nc(C)n(CC(F)F)c4n3)c12` [Compound 183, 5-(3-(2,2-Difluoroethyl)-2-methyl-3H-imidazo[4,5-b]pyridin-5-yl)-N^2-(cis-4-methoxycyclohexyl)-N^4-methylpyrrolo[2,1-f][1,2,4]triazine-2,4-diamine]: 4.1 nM.
Take `CNc1nc(N[C@@H]2CCN(C3COC3)CC2(F)F)nn2ccc(-c3ccc4ncn(CC(F)F)c4n3)c12` [Compound 351, (R)—N^2-(3,3-Difluoro-1-(oxetan-3-yl)piperidin-4-yl)-5-(3-(2,2-difluoroethyl)-3H-imidazo[4,5-b]pyridin-5-yl)-N^4-methylpyrrolo[2,1-f][1,2,4]triazine-2,4-diamine]: the IC50 is 365 nM.
For `CNc1nc(NC2CCC(F)(F)CC2)nn2ccc(-c3ccc4ncn(CCF)c4n3)c12` [Compound 1001, N^2-(4,4-Difluorocyclohexyl)-5-(3-(2-fluoroethyl)-3H-imidazo[4,5-b]pyridin-5-yl)-N^4-methylpyrrolo[2,1-f][1,2,4]triazine-2,4-diamine], the half-inhibitory concentration (IC50) came to 2.2 nM.
For the molecule `CNc1nc(NC2C3CCC2CN(C)C3)nn2ccc(-c3ccc4nc(C)n(CC(F)F)c4n3)c12` (stereo not drawn) [Compound 228, 5-(3-(2,2-Difluoroethyl)-2-methyl-3H-imidazo[4,5-b]pyridin-5-yl)-N^4-methyl-N^2-(3-methyl-3-azabicyclo[3.2.1]octan-8-yl)pyrrolo[2,1-f][1,2,4]triazine-2,4-diamine], the concentration for half-maximal inhibition (IC50) was 2.8 nM.
Turning to `CNc1nc(N[C@H]2CCN(C(C)=O)C[C@H]2F)nn2ccc(-c3ccc4nc(C)n(CC(F)F)c4n3)c12` [Compound 1022, 1-((3R,4S)-4-((5-(3-(2,2-Difluoroethyl)-2-methyl-3H-imidazo[4,5-b]pyridin-5-yl)-4-(methylamino)pyrrolo[2,1-f][1,2,4]triazin-2-yl)amino)-3-fluoropiperidin-1-yl)ethan-1-one], the IC50 came to 0.4 nM.
On to `CNc1nc(N[C@@H]2CCN(C)CC2(F)F)nn2ccc(-c3ccc4nc(C)n(CC(F)F)c4n3)c12` [Compound 214, (R)—N^2-(3,3-Difluoro-1-methylpiperidin-4-yl)-5-(3-(2,2-difluoroethyl)-2-methyl-3H-imidazo[4,5-b]pyridin-5-yl)-N^4-methylpyrrolo[2,1-f][1,2,4]triazine-2,4-diamine], for which the IC50 was 1.1 nM.
On to `CNc1nc(N[C@@H]2CCN(C3COC3)CC2(F)F)nn2ccc(-c3ccc4nc(C)n(CC(F)F)c4n3)c12` [Compound 216, (R)—N^2-(3,3-Difluoro-1-(oxetan-3-yl)piperidin-4-yl)-5-(3-(2,2-difluoroethyl)-2-methyl-3H-imidazo[4,5-b]pyridin-5-yl)-N^4-methylpyrrolo[2,1-f][1,2,4]triazine-2,4-diamine], for which the IC50 turned out to be 0.8 nM.
For `CNc1nc(N[C@@H]2CN(C)CC2(F)F)nn2ccc(-c3ccc4nnn(CC(F)F)c4n3)c12` [Compound 1027, (R)—N^2-(4,4-Difluoro-1-methylpyrrolidin-3-yl)-5-(3-(2,2-difluoroethyl)-3H-[1,2,3]triazolo[4,5-b]pyridin-5-yl)-N^4-methylpyrrolo[2,1-f][1,2,4]triazine-2,4-diamine], the IC50 came to 0.6 nM.
Turning to `CNc1nc(N[C@H]2CCN(C3COC3)C[C@H]2F)nn2ccc(-c3ccc4ncn(CC(F)(F)F)c4n3)c12` [Compound 1016, N^2-((3R,4S)-3-Fluoro-1-(oxetan-3-yl)piperidin-4-yl)-N^4-methyl-5-(3-(2,2,2-trifluoroethyl)-3H-imidazo[4,5-b]pyridin-5-yl)pyrrolo[2,1-f][1,2,4]triazine-2,4-diamine], the IC50 came to 1.5 nM.
Turning to `CNc1nc(NC2(C)CCOCC2)nn2ccc(-c3ccc4nc(C)n(CC(F)F)c4n3)c12` [Compound 218, 5-(3-(2,2-Difluoroethyl)-2-methyl-3H-imidazo[4,5-b]pyridin-5-yl)-N^4-methyl-N^2-(4-methyltetrahydro-2H-pyran-4-yl)pyrrolo[2,1-f][1,2,4]triazine-2,4-diamine], the IC50 turned out to be 14.2 nM.
For the molecule `Cc1nc2ccc(-c3ccn4nc(N[C@H]5CCN(C6COC6)C[C@H]5F)nc(N)c34)nc2n1CCF` [Compound 997, N^2-((3R,4S)-3-Fluoro-1-(oxetan-3-yl)piperidin-4-yl)-5-(3-(2-fluoroethyl)-2-methyl-3H-imidazo[4,5-b]pyridn-5-yl)pyrrolo[2,1-f][1,2,4]triazine-2,4-diamine], the half-maximal inhibitory concentration (IC50) stood at 1.7 nM.
Regarding `Nc1nc(N[C@@H]2CCN(C3COC3)CC2(F)F)nn2ccc(-c3ccc4nnn(CC(F)F)c4n3)c12` [Compound 854, (R)—N^2-(3,3-Difluoro-1-(oxetan-3-yl)piperidin-4-yl)-5-(3-(2,2-difluoroethyl)-3H-[1,2,3]triazolo[4,5-b]pyridin-5-yl)pyrrolo[2,1-f][1,2,4]triazine-2,4-diamine], the IC50 is 2.1 nM.
